Experimental data published in patent publication US20240034761A1, “REGENERATION OF MAMMALIAN TISSUES USING SYNTHETIC IMMODULINS” (priority 2022, published 2024).
Marks after values point to notes of the source that are not given here. Peptide text beside a SMILES is read from it.

Assays:
[1] = system: THP1-Dual monocyte reporter cell line; test: Adjuvant effect of helper molecules on immX3 peptide potency in THP1-Dual assay; type: cell-based, human; settings: immX3 peptide 330 nM, no helper (buffer)
Protocol: Mammalian cell differentiation assays employed the THP1-Dual monocyte reporter cell line (Invivogen Inc, San Diego, CA) seeded at 2×10e5 cells per well in 96-well plates and cultured at 37 degrees C. in RPMI-1640 growth medium plus 10% fetal bovine serum and 1% penicillin/streptomycin. Cells were subsequently treated for 24 hours with 100 ng/ml Phorbol 12-myristate 13-acetate (PMA protocol; Cayman Chemical Company, Ann Arbor, MI). Peptide (0.33 uM or 0.66 uM, as indicated) was then added, and incubation continued for an additional 24 hours. Culture supernatants were assayed for CCL22. Plates with adherent cells were washed with PBS and assayed for immunoreactivity of surface markers such as CD169, Clec9a or Clec12a using fuorescent tag- or biotin-labeled anti-human antibodies purchased from Miltenyi Biotec (Auburn, CA) and the secondary detection reagent recommended by the manufacturer.
The THP1-Dual cell differentiation assay was carried out as described above in Example 2, using immX3 peptide (330 nM) in all samples plus the indicated helper or inhibitor molecule. Molecules were purched from Cayman Chemical Company (Ann Arbor, MI) or Sigma Chemical Company (St. Louis, MO). AU=arbitrary ELISA units. **p<0.01.

[2] = Plate binding of FITC-labelled hyaluronic acid to immobilised biotinylated peptides; settings: 400 ng peptide/well, 1 ug FITC-HMW-HA, PBS; normalized to immX3 peptide binding = 100
[3] = system: C2C12 myoblastic cell line; test: C2C12 myoblast differentiation, creatine kinase; type: cell-based; settings: 0.66 uM peptide, 96 hours, relative to immX3AVD = 100
Protocol: Differentiation assays employed the C2C12 myoblastic cell line (ATCC, Manassas, VA) seeded at 2×10e5 cells per well in 96-well plates and cultured at 37 degrees C. in DMEM growth medium plus 10% fetal bovine serum and 1% penicillin/streptomycin. For differentiation, 10% fetal bovine serum was replaced with 2% horse serum. 0.66 uM peptide was then added, and incubation continued for an additional 96 hours. Plates with adherent cells were washed with PBS, lysed with Lytic-M buffer (Sigma Chemical Company, St. Louis, MO) and the lysates were assayed for creatine kinase using a kit purchased from Bioassay Systems (Cat. #ECPK-100, Hayward, CA). Effects were visually confirmed with microscopy tracking myotube formation. Results were expressed as units per milliliter relative to the control immX3AVD peptide, and p values were also calculated and shown relative to control immX3AVD peptide (** p<0.05 versus immX3AVD control; avg±SD).

## CC(C)[C@H](NC(=O)[C@H](C)NC(=O)[C@H](Cc1c[nH]c2ccccc12)NC(=O)[C@H](CS)NC(=O)[C@H](Cc1ccccc1)NC(=O)CNC(=O)[C@H](CCCNC(=N)N)NC(=O)[C@H](CCCCN)NC(=O)[C@H](CCCNC(=N)N)NC(=O)CNC(=O)[C@H](CCCCN)NC(=O)[C@H](CO)NC(=O)[C@@H]1CCCN1C(=O)[C@H](CCCNC(=N)N)NC(=O)[C@H](CS)NC(=O)[C@H](CCC(N)=O)NC(=O)[C@H](CCCCN)NC(=O)[C@H](CCCCN)NC(=O)[C@H](CCCCN)NC(=O)[C@H](Cc1ccc(O)cc1)NC(=O)[C@H](Cc1ccccc1)NC(=O)CNC(=O)[C@H](CCCCN)NC(=O)[C@@H](N)CCCCN)C(=O)N[C@@H](CC(=O)O)C(=O)O [immX3AVD] (H-KKGFYKKKQCRPSKGRKRGFCWAVD-OH)
[1]
  CD169 (AU): 100.0 ± 4.9 AU
[2]
  Hyaluronate binding (fluorescence counts): 100.0 ± 22.8
[3]; helper D-raffinose (1 mM)
  Creatine Kinase Act.: 140.3 ± 8.3** units per milliliter
[3]; helper GW 3965 (2 uM)
  Creatine Kinase Act.: 67.4 ± 5.2** units per milliliter
[3]; helper GW 501516 (2 uM)
  Creatine Kinase Act.: 174.2 ± 5.0** units per milliliter
[3]; helper L-ornithine (1 mM)
  Creatine Kinase Act.: 161.5 ± 6.5** units per milliliter
[3]; helper Tf (holotransferrin 2 ug/ml)
  Creatine Kinase Act.: 120.6 ± 2.5** units per milliliter
[3]; helper Tf + HMW-HA (2 ug/ml)
  Creatine Kinase Act.: 33.2 ± 3.2 # units per milliliter
[3]; helper Tf + LMW-HA (2 ug/ml)
  Creatine Kinase Act.: 136.7 ± 13.3 units per milliliter
[3]; helper ciprofibrate (2 uM)
  Creatine Kinase Act.: 109.4 ± 3.2** units per milliliter
[3]; helper none
  Creatine Kinase Act.: 100.0 ± 2.2 units per milliliter
